Entries after “also recorded” stand apart in the source; their conditions may differ. Like-named read-outs stand apart in the source and are kept apart here.
Assays:
[1] = tested on: DSS/anti-PD1-induced colitis; experiment: DSS/anti-PD1-induced colitis model; assay type: in vivo, mice; settings: for ICI-induced colonic inflammation, combination with ECP: ECP plus agent vs ECP plus vehicle, FIGS. 4i-p; for severity of ICI-induced colitis (bodyweight, colon length, neutrophil and lymphocyte infiltration): monotherapy vs vehicle, daily days 3-7, FIGS. 4a-h
Procedure: For modeling ECP transplantation in vivo, splenocytes of donor mice were used. Donor animals were treated identically to the respective recipient groups. Spleens were harvested, meshed and erythrocytes were lysed. Splenocytes were resuspended to 3-5×10^6 cells/mL in RPMI, supplemented with 10% FCS and 1% P/S, and treated with 200 ng/mL 8-methoxypsoralen (8-MOP; Uvadex©, Therakos) at 37° C. and 5% CO2 for 30 min. Following incubation, the cells were exposed to UVA light (2 J/cm2) in a calibrated BS-02 irradiation chamber, operated in dose-controlled mode (Opsytec Dr. Gröbel). ECP-treated splenocytes were resuspended in PBS and […] were injected intravenously into recipient mice. Where indicated, PBMCs were treated with ECP comparably to splenocytes and 107 PBMCs were injected intravenously into recipient mice. PBMCs from mouse EDTA-blood were isolated using Ficoll-Paque PREMIUM 1.084 (Cytiva). For ECP-treatment of epithelial cells, 6×10^6 MODE-K cells were seeded onto 10 cm dishes one day before ECP-treatment. The next day, cells were treated with 8-methoxypsoralen and UVA light in a calibrated BS-02 irradiation chamber. Cells were washed with PBS and 2×10^6 ECP-treated MODE-K cells were injected intravenously into recipient mice.
(§1) For the induction of acute colitis, mice received 3% Dextran Sodium Sulfate (DSS colitis grade, 36-50 kDa; MP Biomedicals) in drinking water from day 0 to day 3, followed by normal drinking water. Mice were injected i.p. with 0.2 mg immune checkpoint inhibitor (ICI) or the respective isotype controls on days 0, 3 and 6 of the experiment. Recipients were transplanted i.v. with 107 ECP-treated donor splenocytes on days 3 and 6. In some experiments, steroid, adiponectin or AdipoRon were applied daily from days 3-7. Arginase-1 inhibitor was applied twice per day from days 4-7. STAT6 or PPARγ inhibitors were applied from day 4-7. Mice were injected with Clodrosomes on days 1, 3, 5 and 7. If not indicated differently, mice were sacrificed in day 8 by retroorbital bleeding to harvest serum and organs which were harvested for histopathological scoring and gene expression analysis.
ICI treatment consisted of either 0.2 mg anti-PD1 (mouse, clone RMP1-14; Ichorbio) or 0.2 mg anti-CTLA4 (mouse, clone 9D9; Ichorbio) per injection intraperitoneally. Controls were Rat IgG2a Isotype Control (clone 1-1, Ichorbio) and Mouse IgG2b Isotype Control (clone MPC-11, Ichorbio), respectively. […]
(§2) Colon, liver, skin and lung were harvested, formalin-fixed and paraffin embedded. Sections were stained with H&E and scored by an experienced pathologist, based on histopathological characterization of human irAEs, including lymphocyte and neutrophil infiltration, crypt abscesses, and apoptotic cells on a scale from 0 (absent) to 2 (massive). […]

[2] = tested on: DSS/anti-CTLA4-induced colitis; experiment: DSS/anti-CTLA4-induced colitis model; assay type: in vivo, mice; settings: AdipoRon vs vehicle; FIGS. S10a-S10d
Procedure: as §1, with “If not indicated differently, mice were sacrificed in day 8 by retroorbital bleeding to harvest serum and organs which were harvested for histopathological scoring and gene expression analysis.” left out
as §2
For quantification of adiponectin concentrations in murine serum specimen, blood was harvested by retroorbital bleeding and serum was isolated by centrifugation. Adiponectin concentrations were measured using Adiponectin Mouse ELISA Kit (ThermoFisher) at 20,000-fold dilution.

[3] = tested on: F4/80^+ macrophages (BMDMs); experiment: Arg1 in BMDMs exposed to recombinant adiponectin or AdipoRon; assay type: cell-based, mouse; settings: increasing concentrations, 48 h, vs vehicle
Procedure: BMDMs were generated from bone marrow after erythrocyte lysis. Cells were cultured in RPMI supplemented with 10% FCS, 1% P/S and 20 ng/mL rmM-CSF (Peprotech). Culture medium was replaced on days 5 and 6. Cells were used on day 7 with a purity >95%, confirmed by surface CD11b and F4/80 expression. BMDMs (M0) were polarized for 16 h into M1 with 50 ng/mL rmIFNγ (Peprotech) and 20 ng/mL LPS (Sigma), or into M2 with 20 ng/mL rmIL-4 (Peprotech). If indicated, BMDMs were treated with increasing concentrations of recombinant adiponectin/Acrp30 (GenScript) or AdipoRon (MedChemExpress) for 48 h.
(§3) Spleens were isolated, meshed and erythrocytes were lysed. Single cell suspensions of tissues were prepared as described. Viability was analyzed by either Zombie NIR fixable dye (BioLegend) or LIVE/DEAD Fixable Aqua (Invitrogen) staining. Fc receptors were blocked with anti-mouse CD16/CD32 (BioLegend) for 10 min at 4° C., followed by surface staining with fluorochrome-conjugated antibodies for 30 min at 4° C. […] Antigen-specific CD8 T-cells were analyzed after H-2Kb/OVA^257-264 dextramer staining (Immudex). […] All data were acquired on a BD LSR Fortessa (BD Biosciences) and analyzed with FlowJo v10 (TreeStar). […] Data was acquired with a Canto II flow cytometer (BD Biosciences) and analyzed using FACSDiva Software V6 (BD Biosciences).

ICI-hepatitis = settings: cited from earlier work; for Response / Steroid reduction: case reports
ICI-colitis = settings: cited from earlier work; for ORR (clinical remission) / response rate: retrospective observational cohort, best response at any time point
pan T-cells = experiment: T-cell activation with anti-CD3/CD28 beads in the presence of adiponectin; assay type: cell-based, mouse; settings: 72 h, vs vehicle
Procedure: (§4) Splenic T-cells were isolated from C57BL/6 donors using Pan T-cell isolation kit II (Miltenyi) and activated using anti-CD3/CD28 beads (ThermoScientific) in the presence of 30 U/mL rmIL2 (Peprotech). T-cells were treated with 9 μg/mL recombinant murine adiponectin (GenScript) or vehicle for 72 h. C57BL/6 recipients received 1% DSS (MP Biomedicals) in drinking water from day 0 to day 3, followed by normal drinking water to induce mild colitis. Mice were injected i.p. with 0.2 mg anti-PD1 on day 0, day 3 and day 6 of the experiment. On day 4, activation beads were removed, T-cells were washed and 5×106 T-cells were intravenously injected into colitis animals. Colitis tissue was harvested on day 8. T-cells were stained for CD25 surface expression to determine activation.
as §3, with “staining.” for “staining. Fc receptors were blocked with anti-mouse CD16/CD32 (BioLegend) for 10 min at 4° C., followed by surface staining with fluorochrome-conjugated antibodies for 30 min at 4° C.”

[4] = tested on: DSS/anti-PD1-induced colitis; experiment: Adoptive transfer of adiponectin-treated T-cells into colitis mice; assay type: in vivo; settings: adiponectin-treated vs vehicle-treated T-cells
Procedure: as §4
Colon, liver, skin and lung were harvested, formalin-fixed and paraffin embedded. Sections were stained with H&E and scored by an experienced pathologist, based on histopathological characterization of human irAEs, including lymphocyte and neutrophil infiltration, crypt abscesses, and apoptotic cells on a scale from 0 (absent) to 2 (massive). Scoring was done blinded to the experimental group.

[5] = retrospective analysis of 8 patients
[6] = retrospective analysis of 13 patients

In the case of `O=C(COc1ccc(C(=O)c2ccccc2)cc1)NC1CCN(Cc2ccccc2)CC1` [AdipoRon], the “ICI-induced colonic inflammation, combination with ECP” value [1] is reported as “synergized with ECP to reduce ICI-induced colonic inflammation”, the “severity of ICI-induced colitis (bodyweight, colon length, neutrophil and lymphocyte infiltration)” value [1] is reported as “effective in anti-PD1-mediated colitis” and the “DSS/anti-CTLA4-induced colitis / intestinal inflammation” value [2] is reported as “reduced anti-CTLA-4-induced colitis; also recorded: also in DSS/anti-CTLA4-induced intestinal inflammation”. For the same molecule, the “Arg1 (MFI) in BMDMs” value [3] was “upregulation of immunosuppressive Arg1”.

In the case of `COc1c(C)c2c(c(O)c1C/C=C(\C)CCC(=O)OCCN1CCOCC1)C(=O)OC2` [Mycophenolate mofetil], the Response (ICI-hepatitis) is given as “Improved liver injury within 13; also recorded: Discharge of MMF after 68 days; also recorded: Liver function normalized within 3”, the Steroid reduction (ICI-hepatitis) is given as “Tapered from 60 to 10 mg/d; also recorded: Tapered from 500 to 10 mg/d; also recorded: Discontinuation after 1 year” and the ORR (ICI-hepatitis; retrospective, 8 patients, liver function tests to grade 1 or less) is given as 50%. The Adverse events (ICI-hepatitis; retrospective, 8 patients) was 25%.

For `C=CC[C@@H]1/C=C(\C)C[C@H](C)C[C@H](OC)[C@H]2O[C@@](O)(C(=O)C(=O)N3CCCC[C@H]3C(=O)O[C@H](/C(C)=C/[C@@H]3CC[C@@H](O)[C@H](OC)C3)[C@H](C)[C@@H](O)CC1=O)[C@H](C)C[C@@H]2OC` [Tacrolimus], the Response (ICI-hepatitis) is listed as “Decreasing ALT levels within 2-5” and the Steroid reduction (ICI-hepatitis) is listed as “Cessation at 12 months; also recorded: Cessation of prednisolone over 6”.

For Infliximab: TNF antagonist, the Response (ICI-hepatitis) is given as “Partial response, reduction of ALT”, the Steroid reduction (ICI-hepatitis) is given as “Tapering to 30%, off steroid at 14” and the CR rate (ICI-colitis; [5]) is given as 38%. For the same molecule, the ORR (ICI-colitis; [5]) was 50%, the CR (ICI-colitis; [6]) was 31% and the ORR (ICI-colitis; [6]) was 45%. For the same molecule, the “ORR (clinical remission) / response rate” value (ICI-colitis) was 88%.

For “Tocilizumab: interleukin-6 blockade by tocilizumab”, the “Adverse events, any grade” value (ICI-colitis; human, in vivo) is listed as 80%, the “Adverse events, grade 3-4” value (ICI-colitis; human, in vivo) is listed as 25% and the “patients with reduction in symptoms” value (ICI-colitis; prospective trial, best response during 8 weeks) is listed as 8 of 10. For the same molecule, the ORR (ICI-colitis; prospective, 10 patients, colitis improvement (≥1 grade reduction) within 8 weeks) was 80% and the CR (ICI-colitis; prospective, 10 patients) was 0%.

In the case of “Vedolizumab: treatment for ICI-colitis in cited studies”, the endoscopic remission rate (ICI-colitis; retrospective case series, 28 patients refractory to steroids and/or infliximab) is given as 29%, the “ORR (clinical remission) / response rate” value (ICI-colitis) is given as 89% and the “ORR (clinical remission) / response rate” value (ICI-colitis; listed as vedolizumab) is given as 89%.

B1: adiponectin: recombinant murine adiponectin (GenScript); protein hormone and adipokine (protein, UniProt Q60994 18-247, looked up)
Adiponectin: EDDVTTTEELAPALVPPPKGTCAGWMAGIPGHPGHNGTPGRDGRDGTPGEKGEKGDAGLLGPKGETGDVGMTGAEGPRGFPGTPGRKGEPGEAAYVYRSAFSVGLETRVTVPNVPIRFTKIFYNQQNHYDGSTGKFYCNIPGLYYFSYHITVYMKDVKVSLFKKDKAVLFTYDQYQEKNVDQASGSVLLHLEVGDQVWLQVYGDGDHNGLYADNVNDSTFTGFLLYHDTN
For B1, the “ICI-induced colonic inflammation, combination with ECP” value [1] was “synergized with ECP to reduce ICI-induced colonic inflammation”, the “severity of ICI-induced colitis (bodyweight, colon length, neutrophil and lymphocyte infiltration)” value [1] was “reduce the severity of colitis” and the “Arg1 (MFI) in BMDMs” value [3] was “upregulation of immunosuppressive Arg1”. The “CD25 expression on CD4^+ and CD8^+ T-cells” value (pan T-cells; 9 μg/mL) was “reduced the expression of CD25”, the “FoxP3 expression and CD4^+/CD8^+ T-cell frequencies” value (pan T-cells) was “no effect on FoxP3 expression and CD4^+/CD8^+ T-cell frequencies” and the “colitis severity in recipients of treated T-cells” value [4] was “Colitis severity was lower”.

Reference: patent US20240307497A1, “ADIPONECTIN ALONE OR IN COMBINATION WITH EXTRACORPOREAL PHOTOPHERESIS (ECP) FOR IMMUNE RELATED ADVERSE EVENTS OF IMMUNE CHECKPOINT INHIBITORS” (Mallinckrodt Pharmaceuticals Ireland Limited, priority 2022, published 2024)
